Assay results from US12617756B2 (ABIVAX, priority 2019, dated 2026).

Test system: RSV A2
Assay: Screening for RSV inhibition using Viral ToxGlo assay (cytopathic effect inhibition in HEp-2 cells)
Assay type: cell-based, Respiratory Syncytial Virus (RSV)
Conditions: human respiratory syncytial virus; RSV A2 in HEp-2 cells, MOI 0.5, 72h p.i., cytopathic effect inhibition relative to virus control, Viral ToxGlo luminescence
Procedure, shortened: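 HEp-2 cells in 2% FBS medium infected with RSV A2 right after compound addition (max 1% DMSO), uninfected wells used for cytotoxicity. After 72 h p.i. at 37 °C/5% CO2, cell viability read by Viral ToxGlo luminescence as measure of cytopathic effect.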

Structure (SMILES) | EC50 [µM]
CC(C)C(=O)Nc1cccc(Nc2ccc(C(=O)N=C3NCCN3)cc2C2CC2)c1 [Compound 26, 3-cyclopropyl-N-[(2E)-imidazolidin-2-ylidene]-4-{[3-(2-methylpropanamido)phenyl]amino}benzamide] | 0.0344
CC(C)=CCn1nnc(-c2cccc(Nc3ccc(C(=O)/N=C4\NCCN4C)cc3C3CC3)c2)n1 [Compound 160, 3-cyclopropyl-4-({3-[2-(3-methylbut-2-en-1-yl)-2H-1,2,3,4-tetrazol-5-yl]phenyl}amino)-N-[1-methylimidazolidin-2-ylidene]benzamide] | 0.545
O=C(N=C1NCCN1)c1ccc(Nc2cccc(C(=O)NCC3CCCO3)c2Cl)c(C2CC2)c1 (centres unmarked) [Compound 109, 4-[(2-chloro-3-{[(oxolan-2-yl)methyl]carbamoyl}phenyl)amino]-3-cyclopropyl-N-[(2E)-imidazolidin-2-ylidene]benzamide] | 0.045
O=C(N=C1NCCN1)c1ccc(Nc2cccc(C(=O)NC3CCOC3)c2)c(C2CCCC2)c1 (centres unmarked) [Compound 95, 3-cyclopentyl-N-[(2Z)-imidazolidin-2-ylidene]-4-({3-[(oxolan-3-yl)carbamoyl]phenyl}amino)benzamide] | 0.0959
CC(C)(C)C1(NC(=O)c2cccc(Nc3ccc(C(=O)N=C4NCCN4)cc3C3CC3)c2)CC1 [Compound 111, 4-({3-[(1-tert-butylcyclopropyl)carbamoyl]phenyl}amino)-3-cyclopropyl-N-[(2Z)-imidazolidin-2-ylidene]benzamide] | 0.0304
CC1(NC(=O)c2cccc(Nc3c(F)cc(C(=O)N=C4NCCN4)cc3C3CC3)c2Cl)CC1 [Compound 129, 4-({2-chloro-3-[(1-methylcyclopropyl)carbamoyl]phenyl}amino)-3-cyclopropyl-5-fluoro-N-[imidazolidin-2-ylidene]benzamide] | 0.0043
CC(C)NC(=O)c1cccc(Nc2c(F)cc(C(=O)N=C3NCCN3)cc2C2CC2)c1F [Compound 130, 3-cyclopropyl-5-fluoro-4-({2-fluoro-3-[(propan-2-yl)carbamoyl]phenyl}amino)-N-[imidazolidin-2-ylidene]benzamide] | 0.0073
O=C(N=C1NCCN1)c1cc(F)c(Nc2cccc(C(=O)N3CCOCC3)c2)c(C2CCCO2)c1 (centres unmarked) [Compound 145, 3-fluoro-N-[imidazolidin-2-ylidene]-4-{[3-(morpholine-4-carbonyl)phenyl]amino}-5-(oxolan-2-yl)benzamide] | 0.475
O=C(N=C1NCCN1)c1ccc(Nc2cccc(C(=O)N3CCS(=O)(=O)CC3)c2Cl)c(C2CC2)c1 [Compound 103, 4-{[2-chloro-3-(1,1-dioxo-1)^6-thiomorpholine-4-carbonyl)phenyl]amino}-3-cyclopropyl-N-[(2E)-imidazolidin-2-ylidene]benzamide] | 0.0194
CC(C)NC(=O)c1cccc(Nc2ccc(C(=O)N=C3NCCN3)cc2C2CCOC2)c1 (centres unmarked) [Compound 59, N-[(2E)-imidazolidin-2-ylidene]-3-(oxolan-3-yl)-4-({3-[(propan-2-yl)carbamoyl]phenyl}amino)benzamide] | 0.237
O=C(N=C1NCCN1)c1ccc(Nc2cccc(C(=O)NC3CCOC3)c2Cl)c(C2CC2)c1 (centres unmarked) [Compound 28, 4-({2-chloro-3-[(oxolan-3-yl)carbamoyl]phenyl}amino)-3-cyclopropyl-N-[(2Z)-imidazolidin-2-ylidene]benzamide] | 0.0421
CC(C)NC(=O)c1cccc(Nc2ccc(C(=O)/N=C3\NCCN3C3CC3)cc2C2CC2)c1 [Compound 43, 3-cyclopropyl-N-[(2E)-1-cyclopropylimidazolidin-2-ylidene]-4-({3-[(propan-2-yl)carbamoyl]phenyl}amino)benzamide] | 0.0798
COc1c(Nc2ccc(C(=O)N=C3NCCN3)cc2C2CC2)cccc1C(=O)NCCC(C)C [Compound 27, 3-cyclopropyl-N-[(2Z)-imidazolidin-2-ylidene]-4-({2-methoxy-3-[(3-methylbutyl)carbamoyl]phenyl}amino)benzamide] | 0.0414
CC(C)NC(=O)c1cccc(Nc2cc(F)c(C(=O)N=C3NCCN3)cc2C2CC2)c1 [Compound 131, 5-cyclopropyl-2-fluoro-N-[imidazolidin-2-ylidene]-4-({3-[(propan-2-yl)carbamoyl]phenyl}amino)benzamide] | 0.0779
CC(C)(C)C(=O)Nc1cccc(Nc2ccc(C(=O)N=C3NCCN3)cc2C(C)(C)C)c1 [Compound 20, 3-tert-butyl-4-{[3-(2,2-dimethylpropanamido)phenyl]amino}-N-[(2Z)-imidazolidin-2-ylidene]benzamide] | 0.0235
CC(C)NC(=S)c1cccc(Nc2ccc(C(=O)N=C3NCCN3)cc2C2CC2)c1 [Compound 34, 3-cyclopropyl-N-[(2Z)-imidazolidin-2-ylidene]-4-({3-[(propan-2-yl)carbamothioyl]phenyl}amino)benzamide] | 0.0504
N#CC1(C(=O)Nc2cccc(Nc3ccc(C(=O)N=C4NCCN4)cc3C3CC3)c2)CC1 [Compound 141, 4-{[3-(1-cyanocyclopropaneamido)phenyl]amino}-3-cyclopropyl-N-[imidazolidin-2-ylidene]benzamide] | 0.15
